Test systems include Candida albicans; Escherichia coli; Staphylococcus aureus; Bacillus cereus.
Common to all, as to experiment: ≥ marks a high value that may be exact or a test limit, other limits are often not marked, values filed in µg/mL are converted to µM
Assay [1] deals with Candida albicans ATCC 90028.
Assay [2] relates to Escherichia coli ATCC 25922.
For assay [3], the system named is Staphylococcus aureus ATCC 25923.
For assay [4], the system named is Pseudomonas aeruginosa ATCC 27853.
Assay [5] has as its system Staphylococcus aureus ATCC 29213.

Converted amounts (≈) assume the structure as drawn.

These results are taken from DBAASP.

On to `NCCCC[C@H](NC(=O)[C@H](CCC(=O)O)NC(=O)[C@@H](N)CC(=O)O)C(=O)NCC(=O)N1CCC[C@H]1C(=O)N[C@@H](CCCCN)C(=O)N[C@@H](Cc1c[nH]c2ccccc12)C(=O)N[C@@H](CCCCN)C(=O)N[C@@H](CCCN=C(N)N)C(=O)O` [DEKGPKWKR], for which the MIC in the assay on Candida albicans turned out to be 30.8 µM (≈ 35.2 µg/mL).
For the compound `CC[C@H](C)[C@H](NC(=O)[C@H](CC(C)C)NC(=O)[C@H](CCCCN)NC(=O)CNC(=O)[C@@H](NC(=O)[C@@H](N)Cc1ccccc1)[C@@H](C)CC)C(=O)N[C@@H](CO)C(=O)N[C@@H](C)C(=O)N[C@@H](C)C(=O)N[C@@H](CO)C(=O)NCC(=O)N[C@@H](CC(C)C)C(=O)N[C@@H](CC(C)C)C(=O)N[C@@H](CO)C(=O)N[C@@H](Cc1cnc[nH]1)C(=O)N[C@@H](CC(C)C)C(N)=O` [FIGKLISAASGLLSHL], the MIC worked out at 150 µM (≈ 244 µg/mL) in the assay on Candida albicans, 38.4 µM (≈ 62.4 µg/mL) in the assay on Escherichia coli and 9.5 µM (≈ 15.4 µg/mL) against Staphylococcus aureus.
`CC(C)C[C@H](NC(=O)[C@@H](N)Cc1ccccc1)C(=O)NCC(=O)N[C@@H](CCCCN)C(=O)N[C@H](C(=O)N[C@@H](Cc1ccccc1)C(=O)N[C@@H](CCCCN)C(=O)NCC(=O)N[C@@H](C)C(=O)N[C@@H](CO)C(=O)N[C@@H](CCCCN)C(=O)N[C@H](C(=O)N[C@@H](Cc1ccccc1)C(=O)NCC(=O)N[C@@H](C)C(=O)N[C@H](C(=O)N[C@@H](Cc1ccccc1)C(=O)NCC(=O)N[C@@H](CCCCN)C(=O)N[C@H](C(=O)O)C(C)C)C(C)C)C(C)C)C(C)C` [FLGKVFKGASKVFGAVFGKV]: the MIC in the assay on Bacillus cereus was at least 61.3 µM; in the assay with Escherichia coli, 15.3 µM (≈ 32 µg/mL); against Staphylococcus aureus it was above 123 µM.
On the same counts, the results for `CC(C)C[C@H](NC(=O)[C@H](CCCCN)NC(=O)[C@H](Cc1ccccc1)NC(=O)[C@@H](NC(=O)[C@H](CCCCN)NC(=O)CNC(=O)[C@H](CC(C)C)NC(=O)[C@@H](N)Cc1ccccc1)C(C)C)C(=O)N[C@@H](C)C(=O)N[C@@H](CO)C(=O)N[C@@H](CCCCN)C(=O)N[C@H](C(=O)N[C@@H](Cc1ccccc1)C(=O)NCC(=O)N[C@@H](C)C(=O)N[C@H](C(=O)N[C@@H](Cc1ccccc1)C(=O)NCC(=O)N[C@@H](CCCCN)C(=O)N[C@H](C(=O)O)C(C)C)C(C)C)C(C)C` [FLGKVFKLASKVFGAVFGKV] are 3.73 µM (≈ 8 µg/mL), 7.47 µM (≈ 16 µg/mL) and 3.73 µM (≈ 8 µg/mL).
Turning to `CC(C)C[C@H](NC(=O)[C@@H](N)Cc1ccccc1)C(=O)NCC(=O)N[C@H](C(=O)N[C@H](C(=O)N[C@@H](Cc1ccccc1)C(=O)N[C@@H](CCCCN)C(=O)NCC(=O)N[C@@H](C)C(=O)N[C@@H](CO)C(=O)N[C@@H](CCCCN)C(=O)N[C@H](C(=O)N[C@@H](Cc1ccccc1)C(=O)N1CCC[C@H]1C(=O)N[C@@H](C)C(=O)N[C@H](C(=O)N[C@@H](Cc1ccccc1)C(=O)NCC(=O)N[C@@H](CCCCN)C(=O)N[C@H](C(=O)O)C(C)C)C(C)C)C(C)C)C(C)C)C(C)C` [FLGVVFKGASKVFPAVFGKV], the MIC is at least 122 µM in the assay on Bacillus cereus, above 122 µM against Escherichia coli and above 122 µM against Staphylococcus aureus.
For the compound `CC(C)C[C@H](NC(=O)[C@H](CCCCN)NC(=O)[C@H](Cc1ccccc1)NC(=O)[C@@H](NC(=O)[C@@H](NC(=O)CNC(=O)[C@H](CC(C)C)NC(=O)[C@@H](N)Cc1ccccc1)C(C)C)C(C)C)C(=O)N[C@@H](C)C(=O)N[C@@H](CO)C(=O)N[C@@H](CCCCN)C(=O)N[C@H](C(=O)N[C@@H](Cc1ccccc1)C(=O)N[C@@H](CCCCN)C(=O)N[C@@H](C)C(=O)N[C@H](C(=O)N[C@@H](Cc1ccccc1)C(=O)NCC(=O)N[C@@H](CCCCN)C(=O)N[C@H](C(=O)O)C(C)C)C(C)C)C(C)C` [FLGVVFKLASKVFKAVFGKV], the MIC against Bacillus cereus is 3.66 µM (≈ 8 µg/mL); in the assay with Escherichia coli, 58.6 µM (≈ 128 µg/mL); against Staphylococcus aureus, 3.66 µM (≈ 8 µg/mL).
For `CC[C@H](C)[C@@H]1NC(=O)[C@H](CCCCN)NC(=O)[C@@H](NC(=O)[C@H](CCCCN)NC(=O)[C@H](CC(C)C)NC(=O)[C@H](CCCCN)NC(=O)[C@H](CC(=O)O)NC(=O)[C@H](CC(C)C)NC(=O)[C@H](CCSC)NC(=O)[C@H](CCC(N)=O)NC(=O)CNC(=O)[C@H](C)NC(=O)[C@H](CC(C)C)NC(=O)[C@H](CC(N)=O)NC(=O)[C@H](CCCCN)NC(=O)[C@H](C)NC(=O)[C@H](C)NC(=O)[C@H](CC(N)=O)NC(=O)[C@H](CCCCN)NC(=O)[C@@H](NC(=O)[C@@H](NC(=O)[C@H](CC(=O)O)NC(=O)[C@H](CCSC)NC(=O)[C@H](CC(C)C)NC(=O)CN)[C@@H](C)O)C(C)C)CSSC[C@@H](C(=O)O)NC(=O)[C@H](CO)NC(=O)CNC(=O)[C@H]([C@@H](C)O)NC1=O` [GLMDTVKNAAKNLAGQMLDKLKCKITGSC], the MIC was at least 100 µM in assay [1], 50 µM (≈ 153 µg/mL) in assay [2] and above 200 µM in assay [3].
For the compound `CC(C)C[C@H](NC(=O)CNC(=O)[C@H](C)NC(=O)[C@@H](N)CCCCN)C(=O)N[C@@H](C)C(=O)N[C@@H](Cc1ccccc1)C(=O)N1CCC[C@H]1C(=O)N[C@H](C(=O)NCC(=O)N[C@@H](CCCN=C(N)N)C(=O)N[C@H](C(=O)N[C@@H](Cc1cnc[nH]1)C(=O)N[C@@H](CCCN=C(N)N)C(=O)N[C@@H](CC(C)C)C(=O)N[C@@H](CC(C)C)C(=O)N[C@@H](CCCN=C(N)N)C(=O)N[C@@H](CCCCN)C(=O)O)C(C)C)C(C)C` [KAGLAFPVGRVHRLLRK], the MIC in the assay on Candida albicans turned out to be 133 µM (≈ 255 µg/mL).
Consider `CC[C@H](C)[C@H](NC(=O)[C@H](CCCN=C(N)N)NC(=O)[C@H](CCCCN)NC(=O)[C@@H](NC(=O)[C@H](CCCCN)NC(=O)[C@H](CCCN=C(N)N)NC(=O)[C@@H](N)CCCCN)C(C)C)C(=O)N[C@@H](CCCCN)C(=O)N[C@@H](CCCCN)C(=O)N[C@@H](Cc1ccccc1)C(=O)N[C@@H](CC(C)C)C(=O)N[C@@H](CCCN=C(N)N)C(=O)O` [KRKVKRIKKFLR], for which the MIC worked out at 1.25 µM (≈ 2 µg/mL) in [1], 0.625 µM (≈ 1 µg/mL) in [2], 2.5 µM (≈ 4 µg/mL) in [4] and 20 µM (≈ 32 µg/mL) in [5].
`CC(=O)N[C@@H](CCCCN)C(=O)N[C@@H](Cc1ccc(O)cc1)C(=O)N[C@H](C(=O)NCC(=O)N[C@@H](CCCCN)C(=O)N[C@@H](CS)C(=O)N[C@@H](Cc1ccc(O)cc1)C(=O)N[C@@H](CCCCN)C(=O)N[C@@H](CCCCN)C(=O)N[C@@H](CCCCN)C(=O)N[C@@H](CC(N)=O)C(=O)N[C@@H](CCC(=O)O)C(=O)N[C@@H](CS)C(=O)N[C@@H](CCCCN)C(N)=O)[C@@H](C)O` [KYTGKCYKKKNECK] had an MIC against Candida albicans of 2.5 µM (≈ 4.41 µg/mL).
As for `CC[C@H](C)[C@H](NC(=O)[C@H](CCCCN)NC(=O)[C@H](CS)NC(=O)[C@H](C)NC(=O)[C@@H](NC(=O)[C@H](Cc1ccccc1)NC(=O)CNC(=O)[C@H](CC(C)C)NC(=O)CNC(=O)[C@@H](NC(=O)[C@H](CCCCN)NC(=O)CNC(=O)[C@H](CC(C)C)NC(=O)[C@H](CC(N)=O)NC(=O)[C@H](CCCCN)NC(=O)[C@H](CC(C)C)NC(=O)[C@@H](NC(=O)[C@H](C)NC(=O)[C@H](CC(C)C)NC(=O)[C@H](CCSC)NC(=O)[C@@H](N)CO)C(C)C)C(C)C)C(C)C)C(=O)N[C@@H](CC(N)=O)C(=O)N[C@@H](CCCCN)C(=O)N[C@@H](CCC(N)=O)C(=O)N[C@@H](CS)C(=O)O` [SMLAVLKNLGKVGLGFVACKINKQC], the MIC amounted to 100 µM (≈ 264 µg/mL) with Candida albicans, 10 µM (≈ 26.4 µg/mL) in the assay with Escherichia coli and 100 µM (≈ 264 µg/mL) in the assay with Staphylococcus aureus.
As for `CC[C@H](C)[C@H](NC(=O)[C@H](CCCCN)NC(=O)[C@H](CO)NC(=O)[C@H](C)NC(=O)[C@@H](NC(=O)[C@H](Cc1ccccc1)NC(=O)CNC(=O)[C@H](CC(C)C)NC(=O)CNC(=O)[C@@H](NC(=O)[C@H](CCCCN)NC(=O)CNC(=O)[C@H](CC(C)C)NC(=O)[C@H](CC(N)=O)NC(=O)[C@H](CCCCN)NC(=O)[C@H](CC(C)C)NC(=O)[C@@H](NC(=O)[C@H](CO)NC(=O)[C@H](CC(C)C)NC(=O)[C@H](CCSC)NC(=O)[C@@H](N)CO)C(C)C)C(C)C)C(C)C)C(=O)N[C@@H](CC(N)=O)C(=O)N[C@@H](CCCCN)C(=O)N[C@@H](CCC(N)=O)C(=O)N[C@@H](CO)C(=O)O` [SMLSVLKNLGKVGLGFVASKINKQS], the MIC worked out at 100 µM (≈ 262 µg/mL) in the assay on Candida albicans, 20 µM (≈ 52.4 µg/mL) in the assay on Escherichia coli and 100 µM (≈ 262 µg/mL) with Staphylococcus aureus.
As for `CC(C)C[C@H](NC(=O)[C@H](C)NC(=O)[C@@H](NC(=O)CNC(=O)[C@H](CCCCN)NC(=O)[C@@H](NC(=O)[C@@H](NC(=O)[C@H](CO)NC(=O)[C@H](CO)NC(=O)CNC(=O)[C@@H](NC(=O)[C@@H]1CCCN1C(=O)[C@H](CCCCN)NC(=O)[C@@H](NC(=O)[C@@H](N)CO)C(C)C)C(C)C)C(C)C)C(C)C)[C@@H](C)O)C(=O)N[C@H](C(=O)N[C@@H](CCCCN)C(=O)N[C@@H](Cc1ccccc1)C(=O)N[C@@H](Cc1ccccc1)C(=O)NCC(=O)O)C(C)C` [SVKPVGSSVVKGTALVKFFG], the results for the MIC against Bacillus cereus and with Escherichia coli were at least 128 µM and above 128 µM, respectively.
On the same counts, the results for `CC[C@H](C)[C@H](NC(=O)[C@H](CCCCN)NC(=O)[C@H](Cc1ccccc1)NC(=O)[C@H](CC(C)C)NC(=O)[C@@H]1CCCN1C(=O)[C@H](CO)NC(=O)[C@@H]1CCCN1C(=O)[C@@H](NC(=O)[C@@H](NC(=O)[C@H](C)NC(=O)[C@@H](NC(=O)CNC(=O)[C@H](CCCCN)NC(=O)CNC(=O)[C@H](C)NC(=O)[C@H](CCCN=C(N)N)NC(=O)[C@H](CCCCN)NC(=O)[C@@H](N)C(C)C)C(C)C)C(C)C)C(C)C)C(=O)N[C@H](C(=O)N[C@H](C(=O)O)C(C)C)C(C)C` [VKRAGKGVAVVPSPLFKIVV] are at least 124 µM and above 124 µM.

For orientation: MIC means the lowest concentration found to suppress growth.
